Entries after “also recorded” stand apart in the source; their conditions may differ.

One assay deals with iCasp9+ cells. Conditions: cited from earlier work.
Assay [1] concerns mCherry fluorescent reporter in Jurkat T cells. Description: hhTAD transcription activators, mCherry reporter in Jurkat T cells. It counts as cell-based. The settings on record: 1 uM GZV or 4-OHT, 72h, compared with p65 and VPR counterparts. From the text:
FIG. 6A is a schematic and bar graph showing that the IWS1 TIMs domain increases transcriptional activation in an NS3-comprising synTF in the presence of grazoprevir. FIG. 6B is a schematic and bar graph showing that the IWS1 TIMs domain increases transcriptional activation in an ERT2-comprising synTF in the presence of 4OHT.
The humanized hybrid transcription activator domain (see e.g., SEQ ID NOs: 15-16) when integrated into small-molecule inducible transcriptional activation systems is able to robustly and strongly induce transgene expression in mammalian cells. The humanized hybrid transcription activation domain (hhTAD) was attached to an artificial zinc finger proteins (see e.g., U.S. Pat. No. 10,138,493 B2 and US Patent Publication No. 2020/0377564 A1; the contents of each of which are incorporated herein by reference in their entirety) to either a NS3 or ERT2 domain (see e.g., FIG. 5A). To report transcriptional activation, described herein is a […] mCherry fluorescent reporter (see e.g., FIG. 5B). […]
To evaluate the strength of this hhTAD, Jurkat T cells were generated stably expressing both the transcription activator(s) modified with the hhTAD and fluorescent reporter. […] Reporter cells with were treated 1 uM GZV or 4-OHT, and mCherry reporter fluorescence was measured at 72h (see e.g., FIG. 6A-6B).

For assay [2], the system named is mCherry reporter in Jurkat T cells. Description: Loss of function TIMs mutants in GZV-synZiFTR2.0. It counts as cell-based. Conditions: GZV induction, 3 days, compared to GZV-synZiFTR2.0 carrying WT TIMs. From the text:
FIG. 4A-4B. IWS1 TIMs mechanism of action. (FIG. 4A) IWS1 mutants affecting TIMs employed in this study. WT TIMs domain in GZV-synZiFTR2.0 were replaced by TIMs structural mutant variants (see e.g., SEQ ID NOs: 5-14). The amino acid sequence of the TIMs domain is shown (see e.g., SEQ ID NO: 5). The boxes highlight each of the 3 TIM amino acid sequences (see e.g., SEQ ID NOs: 6-8) and the mutants respectively (see e.g., SEQ ID NOs: 12-14). Different TIM mutations caused loss of interactions with various transcription elongation factors (Transcription factor IIS (TFIIS) and Elongin A (EloA) for the TIM1 mutant; Protein Phosphatase 1 Nuclear Targeting Subunit (PP1-PNUTs) for the TIM2 mutant; lens epithelium-derived growth factor (LEDGF) and H3K36me2/3 binding protein HDGFL2 (HRP2) for the TIM3 mutant). Figure discloses SEQ ID NOS 5-6, 12, 6, 6-7, 7, 13, 7-8, 8, 8, and 14, respectively, in order of appearance. (FIG. 4B) Evaluating loss of function TIMs mutations. GZV-synZiFTR2.04 distinct mutant variants of TIMs were expressed in Jurkat T cells. The circuit outputs were compared to GZV-synZiFTR2.0 carrying WT TIMs. Jurkat T cells were co-transduced with reporter, synZiFTR2.0 and synZiFTR expression lentiviral vectors in an equal ratio. mCherry fluorescence was measured by flow cytometry 3 days after induction by small molecules at the indicated concentrations. Bars represent mean values for three measurements±SD. Statistics represent two-tailed Student's t test; ****P<0.0001.
The TIMs domain contains a series of three unique TIMs that selectively interact with different TND-containing factors. TIM1 interacts with Transcription Factor IIS (TFIIS) and Elongin A (EloA), TIM2 is recognized by the PP1-PNUTS phosphatase, and finally the H3K36me3 readers, lens epithelium-derived growth factor (LEDGF), and H3K36me2/3 binding protein HDGFL2 (HRP2) bind to TIM3. Here, it was investigated which direct interactions between each TIMs and their protein partner is involved in the enhanced transcriptional output by synZiFTR2.0s. […]

For assay [3] the following is noted: among 2A peptides; cited from earlier work.

With `CC[C@H](C(=O)N1CCCC[C@H]1C(=O)O[C@H](CCc1ccc(OC)c(OC)c1)c1cccc(OCC(=O)NCCNC(=O)COc2cccc([C@@H](CCc3ccc(OC)c(OC)c3)OC(=O)[C@@H]3CCCCN3C(=O)[C@@H](CC)c3cc(OC)c(OC)c(OC)c3)c2)c1)c1cc(OC)c(OC)c(OC)c1` [AP1903], the “GvHD outcome after AP1903” value in the assay on iCasp9+ cells (patients receiving iCasp9 T cells) is “complete reversal of GvHD; also recorded: Two of the four patients”. The “reduction in iCasp9+ cells” value in the assay with iCasp9+ cells (phase I trial, four patients with acute GvHD, within 30 minutes of administration) is 90%.
Consider “IWS1 TIMs domain: amino acids 449-492 of IWS1, SEQ ID NO: 5, 44 aa; transcriptional effector domain”, for which the mCherry reporter fluorescence result in assay [1] is reported as “increases their transcriptional activation”.
In the case of “M1: TIM1 mutant, L458A and F459A, SEQ ID NO: 9, in GZV-synZiFTR2.0 (SDKKNEEKDAAGSDSESGNEEENLIADIFGESGDEEEEEFTGFN)”, the mCherry fluorescence output entry in assay [2] is “did not affect GZV-synZiFTR2.0 output”.
For the compound “M2: TIM2 mutant, I476A and F477A, SEQ ID NO: 10, in GZV-synZiFTR2.0 (SDKKNEEKDLFGSDSESGNEEENLIADAAGESGDEEEEEFTGFN)”, the mCherry fluorescence output entry in assay [2] is recorded as “ablated the mCherry fluorescence output by TIMs-p65 fusion”.
On the same count and under the same terms, the same measure for “M3: TIM3 mutant, F488A and F491A, SEQ ID NO: 11, in GZV-synZiFTR2.0 (SDKKNEEKDLFGSDSESGNEEENLIADIFGESGDEEEEEATGAN)”: “did not affect GZV-synZiFTR2.0 output”.
For “P2A: 2A self-cleaving peptide derived from porcine teschovirus-1 2A, SEQ ID NO: 341 (GSGATNFSLLKQAGDVEENPGP; VARIANT 1..3 May be absent)”, in assay [3], the efficiency of self-cleaving result is on record as “most efficient”.

The values are drawn from patent publication US12709637B2, “Regulated synthetic gene activation systems” (TRUSTEES OF BOSTON UNIVERSITY, priority 2023, dated 2026).
